# Counter-ions that a name gives are not always drawn.
# Target: T1, SMARCA2 (Homo sapiens, UniProt P51531)
# T1 construct: fused on or other part: His tag (6His), detected by the anti-6His terbium cryptate antibody
# Test: SMARCA2 HTRF assay
# Conditions: His-tagged SMARCA2-17, average, read-out: SMARCA2 binding Human HTRF: Average IC50
# Protocol: Sample handling: 1× Epigenetics Buffer is prepared according to manufacturer's instructions. 32 nM SMARCA2-17 (4×) is prepared with Epigenetics Buffer. 4×Tb working solution is prepared by diluting Mab Anti 6His Tb cryptate Gold in PPI-Terbium Detection buffer to 0.21 ng/μ1 (100× dilution from stock). SMARCA2-mAb-Tb working solution is prepared by mixing equal volume of 32 nM SMARCA2 with Tb working solution. A half-hour timer is started. In a 96-well plate, serial dilution of compound DMSO solutions is prepared. […] of Epigenetics Buffer is placed to a second 96-well plate. 1 μl of the 100× compound DMSO solution is transferred to the second 96-well plate to make 4× compound working solution. 5 μl/well of 4× compound working solution is added into the 384-well plate and mixed well. […] of SMARCA2-mAb-Tb working solution is added into 384-well plate. The above mixtures are incubated at room temperature for 30 min. Data is collected and processed on EnVision. 520 nm/495 nm readouts ratio are calculated from raw data.
# The letter codes for SMARCA2 average IC50 (μM) include: A (<1 μM), B (1-50 μM), C (51-200 μM), and D (>200 μM).
# T1 sequence (P51531 whole entry, the tested form may be a part): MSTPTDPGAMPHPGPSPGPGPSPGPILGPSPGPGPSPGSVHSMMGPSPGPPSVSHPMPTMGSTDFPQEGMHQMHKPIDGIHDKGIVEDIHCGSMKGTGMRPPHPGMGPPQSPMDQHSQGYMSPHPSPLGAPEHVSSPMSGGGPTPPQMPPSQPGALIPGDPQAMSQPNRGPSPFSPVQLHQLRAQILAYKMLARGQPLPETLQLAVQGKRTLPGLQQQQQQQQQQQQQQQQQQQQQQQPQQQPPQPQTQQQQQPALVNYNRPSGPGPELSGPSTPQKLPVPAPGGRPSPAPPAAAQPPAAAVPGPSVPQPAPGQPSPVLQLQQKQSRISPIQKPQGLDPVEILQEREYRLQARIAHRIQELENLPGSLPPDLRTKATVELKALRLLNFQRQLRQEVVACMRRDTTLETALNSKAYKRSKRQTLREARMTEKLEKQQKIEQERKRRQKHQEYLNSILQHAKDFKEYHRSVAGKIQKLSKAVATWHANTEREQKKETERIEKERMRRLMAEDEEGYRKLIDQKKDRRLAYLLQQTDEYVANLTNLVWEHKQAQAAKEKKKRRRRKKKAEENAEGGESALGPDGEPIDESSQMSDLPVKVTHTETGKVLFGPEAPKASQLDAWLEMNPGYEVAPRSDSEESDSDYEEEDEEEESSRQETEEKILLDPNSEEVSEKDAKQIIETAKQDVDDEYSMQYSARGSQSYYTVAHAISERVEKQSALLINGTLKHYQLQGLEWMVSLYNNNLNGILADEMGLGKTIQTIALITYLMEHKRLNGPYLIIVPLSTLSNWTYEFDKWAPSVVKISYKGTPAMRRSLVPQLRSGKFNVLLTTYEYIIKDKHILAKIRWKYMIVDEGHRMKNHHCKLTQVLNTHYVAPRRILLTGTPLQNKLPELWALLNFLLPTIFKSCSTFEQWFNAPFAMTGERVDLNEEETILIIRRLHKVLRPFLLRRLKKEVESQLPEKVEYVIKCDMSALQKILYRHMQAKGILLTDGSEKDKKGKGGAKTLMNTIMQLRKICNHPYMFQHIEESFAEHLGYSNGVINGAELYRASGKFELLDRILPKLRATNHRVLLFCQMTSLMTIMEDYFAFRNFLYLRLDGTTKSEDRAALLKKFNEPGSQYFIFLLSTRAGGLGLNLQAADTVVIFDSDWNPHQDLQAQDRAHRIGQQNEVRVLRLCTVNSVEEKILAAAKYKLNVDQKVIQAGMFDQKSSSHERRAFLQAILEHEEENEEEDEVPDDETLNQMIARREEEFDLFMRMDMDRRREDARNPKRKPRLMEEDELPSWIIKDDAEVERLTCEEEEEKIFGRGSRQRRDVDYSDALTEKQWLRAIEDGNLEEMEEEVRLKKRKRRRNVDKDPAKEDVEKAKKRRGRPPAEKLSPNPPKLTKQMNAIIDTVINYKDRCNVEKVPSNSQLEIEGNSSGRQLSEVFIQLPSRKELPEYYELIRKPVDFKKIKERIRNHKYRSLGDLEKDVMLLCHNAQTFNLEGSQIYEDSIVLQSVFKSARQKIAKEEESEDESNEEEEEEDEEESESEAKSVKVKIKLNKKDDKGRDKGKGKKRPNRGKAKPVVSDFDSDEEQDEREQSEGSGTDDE
row,Structure (SMILES),IC50 [µM]
1,"Nc1ncc(N2C(=O)CCC2=O)cc1N1CCNCC1 [I-70, 1-(6-amino-5-(piperazin-1-yl)pyridin-3-yl)pyrrolidine-2,5-dione]",> 200
2,"C[C@H]1c2c([nH]c3nnc(-c4ccccc4O)cc23)CCN1c1ncc(C2CCNCC2)cn1 [I-113, (S)-2-(5-methyl-6-(5-(piperidin-4-yl)pyrimidin-2-yl)-6,7,8,9-tetrahydro-5H-pyrido[3′,4′:4,5]pyrrolo[2,3-c]pyridazin-3-yl)phenol]",< 1
3,"C[C@@H]1c2c([nH]c3nnc(-c4ccccc4O)cc23)CCN1c1ncccn1 [I-116, (R)-2-(5-methyl-6-(pyrimidin-2-yl)-6,7,8,9-tetrahydro-5H-pyrido[3′,4′:4,5]pyrrolo[2,3-c]pyridazin-3-yl)phenol]",< 1
4,"O=C1Nc2nnc(-c3ccccc3O)cc2C12CCN(c1ccccc1)CC2 [I-64, 3-(2-hydroxyphenyl)-1′-phenyl-spiro [7H-pyrrolo[2,3-c]pyridazine-5,4′-piperidine]-6-one]",1 to 50
5,"Oc1ccccc1-c1cc2c(nn1)NCC1CNCCN21 (centres unmarked) [I-120, 2-(6,6a,7,8,9,10-hexahydro-5H-pyrazino[1′,2′:4,5]pyrazino[2,3-c]pyridazin-2-yl)phenol 2,2,2-trifluoroacetate]",1 to 50
6,"O=c1[nH]c2nnc(-c3ccccc3O)cc2c2c1CCNC2 [I-1, 9-(2-hydroxyphenyl)-1,2,3,4-tetrahydropyridazino[3,4-c][2,6]naphthyridin-5(6H)-one hydrochloride]",1 to 50
7,"O=c1[nH]c2nnc(-c3ccccc3O)cc2c2c1CNCC2 [I-2, 2-(2-hydroxyphenyl)-7,8,9,10-tetrahydro-5H-pyridazino[3,4-c][2,7]naphthyridin-6-one]",1 to 50
8,"Oc1ccccc1-c1cc(N2CCNCC2)c(NC2COC2)nn1 [I-128, 2-[6-(oxetan-3-ylamino)-5-piperazin-1-yl-pyridazin-3-yl]phenol]",51 to 200
9,"Oc1ccccc1-c1ccc(NC2CCNCC2)nn1 [I-127, 2-[6-(4-piperidylamino)pyridazin-3-yl]phenol]",1 to 50
10,"C[C@H]1NCCc2[nH]c3nnc(-c4ccccc4O)cc3c21 [I-115, (R)-2-(5-methyl-6,7,8,9-tetrahydro-5H-pyrido[3′,4′:4,5]pyrrolo[2,3-c]pyridazin-3-yl)phenol]",51 to 200
11,"Nc1ncc(N2CCNCC2=O)cc1N1CCNCC1 [I-73, 1-(6-amino-5-piperazin-1-yl-3-pyridyl)piperazin-2-one]",> 200
12,"O=C1Nc2nnc(-c3ccccc3O)cc2C12CCNCC2 [I-7, 3-(2-hydroxyphenyl)spiro[7H-pyrrolo[2,3-c]pyridazine-5,4′-piperidine]-6-one]",> 200
13,"CC(C)(C)OC(=O)N1CC=C(c2cc3c(=O)[nH]c4nnc(-c5ccccc5O)cc4n3c2)CC1 [I-124, tert-butyl 4-(2-(2-hydroxyphenyl)-6-oxo-5,6-dihydropyrrolo[1′,2′:4,5]pyrazino[2,3-c]pyridazin-8-yl)-5,6-dihydropyridine-1(2H)-carboxylate]",1 to 50
14,"Oc1ccccc1-c1cc2c(nn1)NC[C@H]1CN(c3ncccn3)CCN21 [I-107, (S)-2-(8-(pyrimidin-2-yl)-6,6a,7,8,9,10-hexahydro-5H-pyrazino[1′,2′:4,5]pyrazino[2,3-c]pyridazin-2-yl)phenol]",< 1
15,"C[C@@H]1c2c([nH]c3nnc(-c4ccccc4O)cc23)CCN1c1nccc(C2CCNCC2)n1 [I-110, (R)-2-(5-methyl-6-(4-(piperidin-4-yl)pyrimidin-2-yl)-6,7,8,9-tetrahydro-5H-pyrido[3′,4′:4,5]pyrrolo[2,3-c]pyridazin-3-yl)phenol]",< 1
16,"Oc1ccccc1-c1cc2c(nn1)NC[C@H]1CNCCN21 [I-108, (R)-2-(6,6a,7,8,9,10-hexahydro-5H-pyrazino[1′,2′:4,5]pyrazino[2,3-c]pyridazin-2-yl)phenol]",1 to 50

row,Structure (SMILES),IC50 [µM]
1,"Oc1ccccc1-c1cc2c(nn1)NC[C@@H]1CN(c3ncccn3)CCN21 [I-106, (R)-2-(8-(pyrimidin-2-yl)-6,6a,7,8,9,10-hexahydro-5H-pyrazino[1′,2′:4,5]pyrazino[2,3-c]pyridazin-2-yl)phenol]",< 1
2,"CC(=O)Nc1nnc(-c2ccccc2O)cc1N1CCNCC1 [I-102, N-[6-(2-hydroxyphenyl)-4-piperazin-1-yl-pyridazin-3-yl]acetamide]",51 to 200
3,"O=C1NCCc2[nH]c3nnc(-c4ccccc4O)cc3c21 [I-119, 3-(2-hydroxyphenyl)-6,7,8,9-tetrahydro-5H-pyrido[3′,4′:4,5]pyrrolo[2,3-c]pyridazin-5-one]",1 to 50
4,C[C@@H]1NCCc2[nH]c3nnc(-c4ccccc4O)cc3c21 [I-117],51 to 200
5,"Oc1ccccc1-c1cc2c(nn1)[nH]c1ccc(C3CCNCC3)cc12 [I-114, 2-(6-(piperidin-4-yl)-9H-pyridazino[3,4-b]indol-3-yl)phenol]",< 1
6,"O=C1Nc2nnc(-c3ccccc3O)cc2C12CCN(Cc1ccccc1)CC2 [I-121, 1′-benzyl-3-(2-hydroxyphenyl)spiro[7H-pyrrolo[2,3-c]pyridazine-5,4′-piperidine]-6-one]",1 to 50
7,"Nc1ncc2c(Cl)cccc2c1N1CCNCC1 [I-74, 8-chloro-4-(piperazin-1-yl)isoquinolin-3-amine]",> 200
8,"CC(=O)Nc1cnc(N)c(-c2cnn(C)c2)c1C [I-129, N-[6-amino-4-methyl-5-(1-methylpyrazol-4-yl)-3-pyridyl]acetamide]",> 200
9,"Nc1ncc(N2CCNC2=O)cc1N1CCNCC1 [I-71, 1-(6-amino-5-piperazin-1-yl-3-pyridyl)imidazolidin-2-one]",> 200
10,"CC(=O)n1ncc2c(-c3cnn(C)c3)c(N)ncc21 [I-126, 1-[5-amino-4-(1-methylpyrazol-4-yl)pyrazolo[3,4-c]pyridine-1-yl]ethanone]",> 200
11,"C[C@H]1c2c([nH]c3nnc(-c4ccccc4O)cc23)CCN1c1ncccn1 [I-118, (S)-2-(5-methyl-6-(pyrimidin-2-yl)-6,7,8,9-tetrahydro-5H-pyrido[3′,4′:4,5]pyrrolo[2,3-c]pyridazin-3-yl)phenol]",< 1
12,"Oc1ccccc1-c1cc2c(cc3n2CCN(c2ncccn2)C3)nn1 [I-123, 2-(8-(pyrimidin-2-yl)-6,7,8,9-tetrahydropyrazino[1′,2′:1,5]pyrrolo[3,2-c]pyridazin-3-yl)phenol]",1 to 50
13,"COCCNc1nnc(-c2ccccc2O)cc1N1CCNCC1 [I-101, 2-[6-(2-methoxyethylamino)-5-piperazin-1-yl-pyridazin-3-yl]phenol]",> 200
14,"C[C@@H]1c2c([nH]c3nnc(-c4ccccc4O)cc23)CCN1c1ncc(C2CCNCC2)cn1 [I-112, (R)-2-(5-methyl-6-(5-(piperidin-4-yl)pyrimidin-2-yl)-6,7,8,9-tetrahydro-5H-pyrido[3′,4′:4,5]pyrrolo[2,3-c]pyridazin-3-yl)phenol]",< 1
15,"C[C@H]1c2c([nH]c3nnc(-c4ccccc4O)cc23)CCN1c1nccc(C2CCNCC2)n1 [I-111, (S)-2-(5-methyl-6-(4-(piperidin-4-yl)pyrimidin-2-yl)-6,7,8,9-tetrahydro-5H-pyrido[3′,4′:4,5]pyrrolo[2,3-c]pyridazin-3-yl)phenol]",< 1
16,"O=c1[nH]c2nnc(-c3ccccc3O)cc2n2cc(C3CCNCC3)cc12 [I-125, 2-(2-hydroxyphenyl)-8-(piperidin-4-yl)pyrrolo[1′,2′:4,5]pyrazino[2,3-c]pyridazin-6(5H)-one]",1 to 50

# From US12569485B2, “SMARCA inhibitors and uses thereof” (Kymera Therapeutics, Inc., priority 2019, dated 2026)
